Entries after “also recorded” stand apart in the source; their conditions may differ. Bounds are passed on as bounds.

Data set [1] has as its target T1, 5-LO (Homo sapiens, UniProt P09917).
T1 sequence (P09917 1-674): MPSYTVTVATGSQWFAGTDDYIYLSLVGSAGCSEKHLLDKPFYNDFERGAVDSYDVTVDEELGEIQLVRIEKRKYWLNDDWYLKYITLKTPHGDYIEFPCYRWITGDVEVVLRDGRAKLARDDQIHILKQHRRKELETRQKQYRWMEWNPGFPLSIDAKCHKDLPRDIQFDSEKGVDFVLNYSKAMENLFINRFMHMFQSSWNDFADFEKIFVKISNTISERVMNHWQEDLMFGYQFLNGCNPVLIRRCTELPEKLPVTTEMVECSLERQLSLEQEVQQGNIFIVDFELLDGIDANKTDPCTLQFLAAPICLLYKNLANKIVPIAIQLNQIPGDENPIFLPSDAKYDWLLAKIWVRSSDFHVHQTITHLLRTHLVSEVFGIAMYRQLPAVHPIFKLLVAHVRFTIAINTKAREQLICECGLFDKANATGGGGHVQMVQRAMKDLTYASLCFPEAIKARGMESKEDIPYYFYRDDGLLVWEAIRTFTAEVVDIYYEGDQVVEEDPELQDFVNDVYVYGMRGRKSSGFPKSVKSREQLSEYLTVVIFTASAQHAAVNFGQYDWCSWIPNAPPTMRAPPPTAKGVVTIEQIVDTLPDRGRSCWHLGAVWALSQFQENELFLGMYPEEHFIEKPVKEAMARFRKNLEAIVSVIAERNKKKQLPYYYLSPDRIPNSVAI
Briefly: 5-LO product biosynthesis assay in stimulated HEK293 cells co-transfected with 5-LO and FLAP. The data set is classed as cell-based. Details: expressed in transfected cells; host or cells: HEK293 cells, stably co-transfected (pcDNA3.1 5-LO, pBUDCE4.1 FLAP). The settings on record: compounds at 1 µM; result in words, compared with zileuton (1) and SAPE (2) at 1 µM; A23187 + arachidonic acid stimulation. Here is the method: All compounds, including known inhibitors zileuton (1) and SAPE (2), were assayed at 1 µM (Figure 1) for inhibition of LTs biosynthesis in stimulated HEK293 cells. These cells are stably transfected with human 5-LO and serves as a highly reproducible model of 5-LO product biosynthesis in which compounds can be preliminarily screened for anti-LTs activity before moving on to more complex systems. […] Esterification of benzo[b]thiophene-2-carboxylic acid to obtain benzyl to phenbutyl analogs (4–7) had no effect on the inhibitory activity of 5-LO. […] Even the addition of a hydroxyl (8) or methoxy (9) at para-position of the phenethyl group has no effect on the activity.
HEK293 cells were stably co-transfected with a pcDNA3.1 vector expressing 5-LO and a pBUDCE4.1 vector expressing 5-LO activating protein (FLAP) as previously reported. This represents a controlled model for the evaluation of 5-LO inhibition in a cellular system. For cell stimulation of 5-LO products, transfected HEK293 cells were collected following trypsinization, washed and the cell pellet was resuspended in Hank’s balanced salt solution (HBSS) (Lonza, Walkerville, MD) containing 1.6 mM CaCl2 at a concentration of 5 × 10^5 cells/mL. Cells were pre-incubated with each compound dissolved in DMSO at the indicated concentration for 5 min at 37 °C. Cells were then stimulated for 15 min at 37 °C with the addition of 10 µM calcium ionophore A23187 (Sigma-Aldrich, Oakville, ON, Canada) and 10 µM arachidonic acid (Cayman Chemical, Ann Arbor, MI). Stimulation was stopped and processed for RP-HPLC analysis as described previously.

The nature of data set [2]: Free radical scavenging activity assay (DPPH). To be noted: DPPH stable radical, 30 min, absorbance 517 nm; read-out: Free radical scavenging activity IC50 (µM) [SEM]. Here is the method: A mechanism by which 5-LO activity can be inhibited is through reductive inhibition of the ferric non-heme iron of the enzyme. Interactions with stable free radicals provides an evaluation of the reducing ability of the test compounds. Radical scavenging activities of compounds tested in stimulated PMNL were assayed using 2,2-Diphenyl-1-picrylhydrazyl (DPPH) as a stable radical and are expressed as IC50 concentrations in Table 1.
The free radical scavenging activity of test compounds was measured as previously described using 2,2-diphenyl-1-picrylhydrazyl (DPPH) as a stable radical with slight modifications. DPPH (200 µL) in ethanol (250 µM) was mixed with 200 µL of the test compounds (1, 5, 10, 25, 50, 75, and 100 µg/mL). Each mixture was then shaken vigorously and held in the dark for 30 min at room temperature. The absorbance of DPPH at 517 nm was then measured. The radical scavenging activity was expressed in terms of % inhibition of DPPH absorbance:% Inhibition = (A control − A test)/A control) × 100 where A control is the absorbance of the control (DPPH solution without test compounds) and A test is the absorbance of the test sample (DPPH solution plus compounds). Ascorbic acid was used as a positive control. Data were expressed as mean ± SEM of three independent experiments, each performed in triplicate. IC50 values were calculated from a sigmoidal concentration-response curve-fitting model with a variable slope on GraphPad Prism software.

For data set [3], the target named is T1, 5-LO. Put plainly: 5-LO products biosynthesis assay in human PMNL cells. The data set is classed as cell-based. On the set-up: 5-LO is highly expressed in PMNL; endogenous in cells; host or cells: human PMNL from peripheral blood of healthy volunteers. The settings on record: for Inhibition of the biosynthesis of 5-LO products in human PMNL cells: compounds at 1 µM, result in words, compared with zileuton (1), SAPE (2) or controls, thapsigargin stimulation. An excerpt:
To further probe the inhibitory activity of compounds that approached the inhibitory activity of zileuton (1) and SAPE (2), compounds were selected for further screening in PMNL (Figure 6). 5-LO is highly expressed in PMNL and these cells are important physiological producers of LTB4 [17]. […] The presence of the hydroxyl group in position 4 and the methoxy groups in positions 3 and 5 seems to be an ideal combination for inhibition of 5-LO (Figure 6). These structural changes may influence the availability, cell permeation, or even the stability of inhibitors in PMNL versus HEK293 cells. […] Human PMNL were prepared from peripheral blood of healthy consenting volunteers as described. Human PMNL are an important source of 5-LO metabolites and are relevant primary inflammatory cells for the evaluation of the best compounds identified during the screening process. PMNL were suspended in HBSS containing 1.6 mM CaCl2 (10^7 cells/mL) and pre-incubated with compounds dissolved in DMSO for 5 min at 37 °C in the presence of 0.4 U/mL of adenosine deaminase (Sigma-Aldrich, Oakville, On, Canada). Cells were then stimulated for 15 min at 37 °C with 1 μM thapsigargin (Sigma-Aldrich). Reactions were stopped by the addition of 0.5 mL of cold MeOH:CH3CN (1:1) and 50 ng of PGB2 as internal standard and samples were stored at -20 °C until processing for RP-HPLC analysis as indicated above.

Regarding `O=C(OCCc1ccccc1)c1cc2ccccc2s1` [Compound 5, Phenethyl 1-benzothiophene-2-carboxylate], the melting point was 61 to 62 °C. For the molecule `O=C(/C=C/c1ccccc1)c1cc2ccccc2s1` [Compound 11, (E)-1-(1-Benzothiophen-2-yl)-3-phenyl-2-propen-1-one], the melting point lay in the range of 118 to 120 °C. For the same molecule, the “Inhibition of the biosynthesis of 5-LO products in stimulated HEK293 cells” value (“Inhibition … in stimulated HEK293 cells” below) in data set [1] is “less active than SAPE (2); also recorded: non-significantly different than Zileuton (1)”. For `O=C(/C=C/c1ccc(O)cc1)c1cc2ccccc2s1` [Compound 16], in data set [2], the 50% inhibitory concentration (IC50) amounted to 68.9 µM. The “Inhibition of the biosynthesis of 5-LO products in human PMNL cells” value (“Inhibition … in human PMNL cells” for short) in data set [3] is reported as “neither compound showed significant inhibition compared to controls”. Further, the “Inhibition … in stimulated HEK293 cells” value in data set [1] is “non-significantly different than Zileuton (1)”. As for `COc1ccc(/C=C/C(=O)c2cc3ccccc3s2)cc1O` [Compound 17], the IC50 in data set [2] came out at 64.7 µM. Moreover, the “Inhibition … in human PMNL cells” value in data set [3] was “less active than zileuton (1) and SAPE (2)”. In the case of `COc1cc(/C=C/C(=O)c2cc3ccccc3s2)ccc1O` [Compound 18], the IC50 in data set [2] came to 68.8 µM. Further, the “Inhibition … in human PMNL cells” value in data set [3] was “less active than zileuton (1) and SAPE (2)”. Also, the “Inhibition … in stimulated HEK293 cells” value in data set [1] is “not-significantly different than zileuton (1)”. In the case of `COc1cc(/C=C/C(=O)c2cc3ccccc3s2)cc(OC)c1` [Compound 20], the “Inhibition … in stimulated HEK293 cells” value in data set [1] was “not-significantly different than zileuton (1)”.

With `COc1cc(/C=C/C(=O)c2cc3ccccc3s2)cc(OC)c1OC` [Compound 26], the “Inhibition … in stimulated HEK293 cells” value in data set [1] was “inactive”. With `COc1cc(OC)c(/C=C/C(=O)c2cc3ccccc3s2)c(OC)c1` [Compound 27], in data set [2], the IC50 was 6.9 µM. Further, the “Inhibition … in human PMNL cells” value in data set [3] was “complete loss of the 5-LO inhibition”. Further, the “Inhibition … in stimulated HEK293 cells” value in data set [1] was “equipotent to Zileuton (1)”. On to `COc1cc(/C=C/C(=O)c2cc3ccccc3s2)cc(OC)c1O` [Compound 28], for which the IC50 in data set [2] stood at 48.9 µM; in data set [3] (95% confidence interval: 0.25–0.53 μM, read-out: IC50 for the inhibition of 5-LO product biosynthesis in PMNL), 0.37 µM. The “Inhibition … in human PMNL cells” value in data set [3] is on record as “three times as active as zileuton (1); also recorded: exceeding zileuton’s (1) inhibitory capacity in PMNL by more than three times”. Moreover, the “Inhibition … in stimulated HEK293 cells” value in data set [1] is “equipotent to zileuton (1); also recorded: non-significantly different than zileuton (1) and SAPE (2)”. For `Cc1cc(/C=C/C(=O)c2cc3ccccc3s2)cc(C)c1O` [Compound 29], the “Inhibition … in stimulated HEK293 cells” value in data set [1] is reported as “does not seem to be favorable for the inhibition of 5-LO products”. On the same count and under the same terms, as for `COc1cc(O)cc(OC)c1/C=C/C(=O)c1cc2ccccc2s1` [Compound 30], the entry is “less active than compound 28”. Regarding `COc1cc(/C=C/C(=O)c2cc3ccccc3s2)cc(O)c1OC` [Compound 31], the IC50 in data set [2] came to 6.6 µM. In addition, in data set [3], the “Inhibition … in human PMNL cells” value is “total loss of activity; also recorded: inactive”. Also, the “Inhibition … in stimulated HEK293 cells” value in data set [1] was “inactive; also recorded: less active than compound 28”.

`NC(=O)N(O)C(=O)/C=C/c1ccccc1` [Compound 33, 1-Hydroxy-1-((E)-3-phenylacryloyl)urea] displayed a melting point of 130 to 132 °C. The “Inhibition … in stimulated HEK293 cells” value in data set [1] is “inactive”. `COc1ccc(/C=C/C(=O)N(O)C(N)=O)cc1O` [Compound 34, 1-Hydroxy-1-((E)-3-(3-hydroxy-4-methoxyphenyl)acryloyl)urea] displayed a melting point of 170 to 172 °C. The “Inhibition … in stimulated HEK293 cells” value in data set [1] is “inactive”. Take `COc1cc(/C=C/C(=O)N(O)C(N)=O)ccc1O` [Compound 35]: the “Inhibition … in stimulated HEK293 cells” value in data set [1] was “inactive”.

Regarding `COc1ccc(/C=C/C(=O)N(O)C(N)=O)cc1OC` [Compound 36], the “Inhibition … in stimulated HEK293 cells” value in data set [1] was “inactive”.

On to `COc1cc(/C=C/C(=O)N(O)C(N)=O)cc(OC)c1O` [Compound 37], for which the IC50 in data set [2] was 13.3 µM. Further, the “Inhibition … in human PMNL cells” value in data set [3] was “inactivity; also recorded: inactive”. The “Inhibition … in stimulated HEK293 cells” value in data set [1] is “inactive”. Consider `NC(=O)N(O)C(=O)c1ccccc1` [Compound 38, 1-Hydroxy-1-(benzoyl)urea], for which the melting point is 127 to 129 °C. In data set [1], the “Inhibition … in stimulated HEK293 cells” value is “inactive”.

`NC(=O)N(O)C(=O)Cc1ccccc1` [Compound 39, 1-Hydroxy-1-(2-phenylacetyl)urea] gave a melting point of 133 to 135 °C. In data set [1], the “Inhibition … in stimulated HEK293 cells” value is “inactive”. For the molecule `NC(=O)N(O)C(=O)CCc1ccccc1` [Compound 40], the “Inhibition … in stimulated HEK293 cells” value in data set [1] is “inactive”. In the case of `COc1cc(/C=C/C(=O)OCCc2ccccc2)cc(OC)c1O` [SAPE (2), sinapic acid phenethyl ester, reference compound], the IC50 in data set [2] amounted to 25.4 µM. With `O=C1O[C@H]([C@@H](O)CO)C(O)=C1O` [Vitamin C, Ascorbic acid, reference compound], in data set [2], the IC50 amounted to 21.8 µM. For the molecule `CC(c1cc2ccccc2s1)N(O)C(N)=O` (stereo not drawn) [Zileuton (1), zileuton], the IC50 in data set [2] is greater than 100 µM.

In general, melting point refers to the temperature, or range, at which the solid turns liquid. The term IC50 denotes the concentration at which inhibition is half-maximal.
